From patent US8309718B2, “4-pyrazolyl-N-arylpyrimidin-2-amines and 4-pyrazolyl-N-heteroarylpyrimidin-2-amines as janus kinase inhibitors” (Incyte Corporation, priority 2007, dated 2012)

Target: T1, human JAK2 (Homo sapiens, UniProt O60674)
T1 construct: JAK2 (a.a. 828-1132); His tag (N); made in house; host or cells: insect cells (baculovirus)
Assay: In vitro JAK kinase assay (HTRF, phosphorylation of biotinylated peptide)
Format: biochemical
Conditions: catalytic domain a.a. 828-1132, 30 μM ATP, 500 nM peptide, room temperature 1 hr; read-out: JAK-2 IC50
Outline: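 IC50 from HTRF detection (Eu-Py20 antibody, SA-APC) of biotinylated-peptide phosphorylation (500 nM), run 1 h at RT. Enzyme: N-His human JAK2 kinase domain a.a. 828-1132 from insect cells; ATP 30 μM; buffer 50 mM Tris pH 7.8 with NaCl, DTT, BSA.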

T1 sequence (O60674 828-1132): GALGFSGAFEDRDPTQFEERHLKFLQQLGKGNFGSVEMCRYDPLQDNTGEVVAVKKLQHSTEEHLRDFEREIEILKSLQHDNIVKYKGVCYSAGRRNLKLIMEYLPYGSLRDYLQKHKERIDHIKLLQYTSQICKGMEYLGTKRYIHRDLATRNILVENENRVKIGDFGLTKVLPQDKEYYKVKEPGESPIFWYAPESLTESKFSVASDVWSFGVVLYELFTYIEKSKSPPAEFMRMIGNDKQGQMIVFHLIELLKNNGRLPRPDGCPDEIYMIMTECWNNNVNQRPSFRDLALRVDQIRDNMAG

SMILES	IC50
Cn1ccc(S(=O)(=O)N2CCC(CC(CC#N)n3cc(-c4ccnc(Nc5ccc(C(N)=O)cc5)n4)cn3)CC2)n1 (racemic) [Example 47, 4-(4-(1-(1-cyano-3-(1-(1-methyl-1H-pyrazol-3-ylsulfonyl)piperidin-4-yl)propan-2-yl)-1H-pyrazol-4-yl)pyrimidin-2-ylamino)benzamide]	< 100 nM
CCS(=O)(=O)N1CCC(CC(CC#N)n2cc(-c3nc(Nc4ccc(N5CCOCC5)cc4)ncc3C)cn2)CC1 (racemic) [Example 48, 4-(1-(ethylsulfonyl)piperidin-4-yl)-3-(4-(5-methyl-2-(4-morpholinophenylamino)pyrimidin-4-yl)-1H-pyrazol-1-yl)butanenitrile]	< 100 nM
CCS(=O)(=O)N1CCC(CC(CC#N)n2cc(-c3nc(Nc4ccc(-n5cccn5)cc4)ncc3C)cn2)CC1 (racemic) [Example 49, 3-(4-(2-(4-(1H-pyrazol-1-yl)phenylamino)-5-methylpyrimidin-4-yl)-1H-pyrazol-1-yl)-4-(1-(ethylsulfonyl)piperidin-4-yl)butanenitrile]	< 100 nM
CCS(=O)(=O)N1CCC(CC(CC#N)n2cc(-c3nc(Nc4ccccc4)ncc3C)cn2)CC1 (racemic) [Example 50, 4-(1-(ethylsulfonyl)piperidin-4-yl)-3-(4-(5-methyl-2-(phenylamino)pyrimidin-4-yl)-1H-pyrazol-1-yl)butanenitrile]	< 100 nM
CC(=O)Nc1ccc(Nc2ncc(C)c(-c3cnn(C(CC#N)CC4CCN(S(=O)(=O)c5ccn(C)n5)CC4)c3)n2)cc1 (racemic) [Example 51, N-(4-(4-(1-(1-cyano-3-(1-(1-methyl-1H-pyrazol-3-ylsulfonyl)piperidin-4-yl)propan-2-yl)-1H-pyrazol-4-yl)-5-methylpyrimidin-2-ylamino)phenyl)acetamide]	< 100 nM
CCS(=O)(=O)N1CCC(CC(CC#N)n2cc(-c3nc(Nc4ccc(C(=O)N(C)C)cc4)ncc3C)cn2)CC1 (racemic) [Example 52, 4-(4-(1-(1-cyano-3-(1-(ethylsulfonyl)piperidin-4-yl)propan-2-yl)-1H-pyrazol-4-yl)-5-methylpyrimidin-2-ylamino)-N,N-dimethylbenzamide]	< 100 nM
Cc1cnc(Nc2ccc(C(N)=O)cc2)nc1-c1cnn(C(CC#N)CC2CCN(S(=O)(=O)c3ccn(C)n3)CC2)c1 (racemic) [Example 53, 4-(4-(1-(1-cyano-3-(1-(1-methyl-1H-pyrazol-3-ylsulfonyl)piperidin-4-yl)propan-2-yl)-1H-pyrazol-4-yl)-5-methylpyrimidin-2-ylamino)benzamide]	< 100 nM
CS(=O)(=O)N1CCN(c2ccc(Nc3nccc(-c4cnn(C(CC#N)C5CCCC5)c4)n3)cc2)CC1 (racemic) [Example 54, 3-cyclopentyl-3-(4-(2-(4-(4-(methylsulfonyl)piperazin-1-yl)phenylamino)pyrimidin-4-yl)-1H-pyrazol-1-yl)propanenitrile]	< 100 nM
Cn1ccc(S(=O)(=O)N2CCC(CC(CC#N)n3cc(-c4ccnc(Nc5ccc(N6CCOCC6)cc5)n4)cn3)CC2)n1 (racemic) [Example 55, 4-(1-(1-methyl-1H-pyrazol-3-ylsulfonyl)piperidin-4-yl)-3-(4-(2-(4-morpholinophenylamino)pyrimidin-4-yl)-1H-pyrazol-1-yl)butanenitrile]	< 100 nM
Cn1ccc(S(=O)(=O)N2CCC(CC(CC#N)n3cc(-c4ccnc(Nc5ccc(-n6cccn6)cc5)n4)cn3)CC2)n1 (racemic) [Example 56, 3-(4-(2-(4-(1H-pyrazol-1-yl)phenylamino)pyrimidin-4-yl)-1H-pyrazol-1-yl)-4-(1-(1-methyl-1H-pyrazol-3-ylsulfonyl)piperidin-4-yl)butanenitrile]	< 100 nM
Cn1ccc(S(=O)(=O)N2CCC(CC(CC#N)n3cc(-c4ccnc(Nc5ccccc5)n4)cn3)CC2)n1 (racemic) [Example 57, 4-(1-(1-methyl-1H-pyrazol-3-ylsulfonyl)piperidin-4-yl)-3-(4-(2-(phenylamino)pyrimidin-4-yl)-1H-pyrazol-1-yl)butanenitrile]	< 100 nM
CN(C)C(=O)c1ccc(Nc2nccc(-c3cnn(C(CC#N)CC4CCN(S(=O)(=O)c5ccn(C)n5)CC4)c3)n2)cc1 (racemic) [Example 58, 4-(4-(1-(1-cyano-3-(1-(1-methyl-1H-pyrazol-3-ylsulfonyl)piperidin-4-yl)propan-2-yl)-1H-pyrazol-4-yl)pyrimidin-2-ylamino)-N,N-dimethylbenzamide]	< 100 nM
CN(C)C(=O)c1ccc(Nc2nccc(-c3cnn(C(CC#N)CC4CCN(C(=O)c5ccc(F)cc5F)CC4)c3)n2)cc1 (racemic) [Example 59, 4-(4-(1-(1-cyano-3-(1-(2,4-difluorobenzoyl)piperidin-4-yl)propan-2-yl)-1H-pyrazol-4-yl)pyrimidin-2-ylamino)-N,N-dimethylbenzamide]	< 100 nM
CC(=O)Nc1ccc(Nc2nccc(-c3cnn(C(CC#N)CC4CCN(C(=O)c5ccc(F)cc5F)CC4)c3)n2)cc1 (racemic) [Example 60, N-(4-(4-(1-(1-cyano-3-(1-(2,4-difluorobenzoyl)piperidin-4-yl)propan-2-yl)-1H-pyrazol-4-yl)pyrimidin-2-ylamino)phenyl)acetamide]	< 100 nM
Cc1cnc(Nc2ccc(N3CCOCC3)cc2)nc1-c1cnn(C(CC#N)CC2CCN(S(=O)(=O)c3ccn(C)n3)CC2)c1 (racemic) [Example 61, 4-(1-(1-methyl-1H-pyrazol-3-ylsulfonyl)piperidin-4-yl)-3-(4-(5-methyl-2-(4-morpholinophenylamino)pyrimidin-4-yl)-1H-pyrazol-1-yl)butanenitrile]	< 100 nM
Cc1cnc(Nc2ccc(N3CCOCC3)cc2)nc1-c1cnn(C(CC#N)CC2CCN(C(=O)c3ccc(F)cc3F)CC2)c1 (racemic) [Example 62, 4-(1-(2,4-difluorobenzoyl)piperidin-4-yl)-3-(4-(5-methyl-2-(4-morpholinophenylamino)pyrimidin-4-yl)-1H-pyrazol-1-yl)butanenitrile]	< 100 nM

Further lines, results first:

IC50	SMILES
< 100 nM	N#CCC(C1CCCC1)n1cc(-c2ccnc(Nc3ccc(N4CCOCC4)cc3)n2)cn1 (racemic) [Example 35, 3-cyclopentyl-3-(4-(2-(4-morpholinophenylamino)pyrimidin-4-yl)-1H-pyrazol-1-yl)propanenitrile]
< 100 nM	N#CCC(C1CCCC1)n1cc(-c2ccnc(Nc3ccccc3)n2)cn1 (racemic) [Example 36, 3-cyclopentyl-3-(4-(2-(phenylamino)pyrimidin-4-yl)-1H-pyrazol-1-yl)propanenitrile]
< 100 nM	N#CCC(C1CCCC1)n1cc(-c2ccnc(Nc3cccc(-c4cnco4)c3)n2)cn1 (racemic) [Example 37, 3-cyclopentyl-3-(4-(2-(3-(oxazol-5-yl)phenylamino)pyrimidin-4-yl)-1H-pyrazol-1-yl)propanenitrile]
< 100 nM	COc1ccc(Nc2nccc(-c3cnn(C(CC#N)C4CCCC4)c3)n2)cc1 (racemic) [Example 38, 3-cyclopentyl-3-(4-(2-(4-methoxyphenylamino)pyrimidin-4-yl)-1H-pyrazol-1-yl)propanenitrile]
< 100 nM	CC(=O)Nc1ccc(Nc2nccc(-c3cnn(C(CC#N)C4CCCC4)c3)n2)cc1 (racemic) [Example 39, N-(4-(4-(1-(2-cyano-1-cyclopentylethyl)-1H-pyrazol-4-yl)pyrimidin-2-ylamino)phenyl)acetamide]
< 100 nM	CN(C)C(=O)c1ccc(Nc2nccc(-c3cnn(C(CC#N)C4CCCC4)c3)n2)cc1 (racemic) [Example 40, 4-(4-(1-(2-cyano-1-cyclopentylethyl)-1H-pyrazol-4-yl)pyrimidin-2-ylamino)-N,N-dimethylbenzamide]
< 100 nM	N#CCC(C1CCCC1)n1cc(-c2ccnc(Nc3ccc(N4CCNCC4)cc3)n2)cn1 (racemic) [Example 41, 3-cyclopentyl-3-(4-(2-(4-(piperazin-1-yl)phenylamino)pyrimidin-4-yl)-1H-pyrazol-1-yl)propanenitrile]
< 100 nM	CCS(=O)(=O)N1CCC(CC(CC#N)n2cc(-c3ccnc(Nc4ccc(N5CCOCC5)cc4)n3)cn2)CC1 (racemic) [Example 42, 4-(1-(ethylsulfonyl)piperidin-4-yl)-3-(4-(2-(4-morpholinophenylamino)pyrimidin-4-yl)-1H-pyrazol-1-yl)butanenitrile]
< 100 nM	CCS(=O)(=O)N1CCC(CC(CC#N)n2cc(-c3ccnc(Nc4ccc(-n5cccn5)cc4)n3)cn2)CC1 (racemic) [Example 43, 3-(4-(2-(4-(1H-pyrazol-1-yl)phenylamino)pyrimidin-4-yl)-1H-pyrazol-1-yl)-4-(1-(ethylsulfonyl)piperidin-4-yl)butanenitrile]
< 100 nM	CCS(=O)(=O)N1CCC(CC(CC#N)n2cc(-c3ccnc(Nc4ccccc4)n3)cn2)CC1 (racemic) [Example 44, 4-(1-(ethylsulfonyl)piperidin-4-yl)-3-(4-(2-(phenylamino)pyrimidin-4-yl)-1H-pyrazol-1-yl)butanenitrile]
< 100 nM	CC(=O)Nc1ccc(Nc2nccc(-c3cnn(C(CC#N)CC4CCN(S(=O)(=O)c5ccn(C)n5)CC4)c3)n2)cc1 (racemic) [Example 45, N-(4-(4-(1-(1-cyano-3-(1-(1-methyl-1H-pyrazol-3-ylsulfonyl)piperidin-4-yl)propan-2-yl)-1H-pyrazol-4-yl)pyrimidin-2-ylamino)phenyl)acetamide]
< 100 nM	CCS(=O)(=O)N1CCC(CC(CC#N)n2cc(-c3ccnc(Nc4ccc(C(=O)N(C)C)cc4)n3)cn2)CC1 (racemic) [Example 46, 4-(4-(1-(1-cyano-3-(1-(ethylsulfonyl)piperidin-4-yl)propan-2-yl)-1H-pyrazol-4-yl)pyrimidin-2-ylamino)-N,N-dimethylbenzamide]
